Test results taken from EPA's ToxValDB 9.5.

Test system: Rattus norvegicus
Details: oral
[1] = subchronic, gavage, M, Sprague-Dawley, Deaths + Clinical Observation: Salivation Abnormal resp. noise Irregular respiration Loose stool DiarrheaSoiled fur, nasal/urogenital region…
[2] = subchronic, gavage, M, Sprague-Dawley, Clinical Observation: Salivation + Body Weight Changes: Gain increase + Food Consumption: increase + Hematology: Plt increase, Eosinophil% …
[3] = short-term, duration: 28 days, gavage, M, Sprague-Dawley, Clinical Observation: Salivation Orange urinelocomotor activity decreaserespiratory rate decrease, Incomplete eye opening Staining around …

## O=C1CCC(=O)O1 [Succinic anhydride]
subchronic, duration: 13 weeks, gavage, M/F, Fischer 344, Deaths + Clinical Observation: Lethargy Distended abdomens + Body Weight Changes: decrease + Absolute Organ Weight: Liver increase + …
  NOEL: 50 mg/kg-day

## N#Cc1c(Cl)c(Cl)c(C#N)c(Cl)c1Cl [p-Phthalodinitrile, tetrachloro-]
subchronic, gavage, Sprague-Dawley
  NOEL: 1000 mg/kg-day

## Cl.Nc1ccc(Cl)cc1 [4-Chloroaniline hydrochloride]
subchronic, duration: 13 weeks, gavage, M/F, Fischer 344, Deaths + Body Weight Changes: decrease + Hematology: WBC increase, Lympho increase, Hct decrease, Hgb decrease, Methemoglobin increase, RBC …
  NOEL: < 5 mg/kg-day

## CC1CC(CC2CCC(N)C(C)C2)CCC1N (stereo not given) [Bis(4-amino-3-methylcyclohexyl)methane]
subchronic, duration: 90 days, gavage, M/F, Wistar, Deaths: None (There were dead animals due to the intubation error) + Clinical Observation: Deteriorated general state Discolored body region…
  NOAEL: 2.5 mg/kg-day

## O=C([O-])C1=Cc2sc(Cn3ccnc3)cc2CC1.[Na+] [RS 5186]
subchronic, duration: 90 days, gavage, M/F, CD, Clinical Observation: Salivation Chylous or dark red-brown urine + Absolute Organ Weight: Liver increase + Relative Organ Weight: Liver …
  NOAEL: 30 mg/kg-day

## O=C1C(Cl)=C(Cl)C(=O)N1Cc1ccccc1 [1-benzyl-3,4-dichloro-1H-pyrrole-2,5-dione]
short-term, duration: 28 days, gavage, M/F, Clinical Observation: Salivation + Body Weight Changes: Body weight gain decrease + Blood Chemistry: TG decrease, GLU decrease + Organ …
  NOEL: 40 mg/kg-day

## CCn1cc(C(=O)O)c(=O)c2cc(F)c(N3CCNC(C)C3)c(F)c21.Cl (stereo not given) [Lomefloxacin hydrochloride]
chronic, duration: 91 days, gavage, M/F, Sprague-Dawley, Deaths + Clinical Observation: Prone position(dead animals) Hypothermia(dead animals) Lid closure(dead animals) Clonic convulsion(dead …
  NOEL: 30 mg/kg-day

## COc1cc(-c2ccc(N)c(OC)c2)ccc1N.Cl.Cl [C.I. Disperse Black 6 dihydrochloride]
subchronic, duration: 13 weeks, drinking water, M/F, Fischer 344, Body Weight Changes: decrease + Water Consumption: decrease + Hematology: WBC decrease, Lympho decrease, Hct decrease, RBC decrease + Blood …
  NOEL: < 170 mg/kg-day

## O=[Se](=O)([O-])[O-].[Na+].[Na+] [Sodium selenate]
subchronic, drinking water, F, Fischer 344, Deaths + Body Weight Changes: decrease + Hematology: Hct increase, Hgb increase, RBC increase + Blood Chemistry: BUN increase ALT increase, …
  NOEL: 0.31 mg/kg-day
subchronic, drinking water, M/F, Fischer 344, Deaths + Body Weight Changes: decrease + Hematology: Hct increase, Hgb increase, RBC increase + Blood Chemistry: BUN increase ALT increase, …
  NOEL: 0.57 mg/kg-day

## Nc1ccc(N)c2c1C(=O)c1c(N)ccc(N)c1C2=O [C.I. Disperse Blue 1]
subchronic, duration: 13 weeks, diet, M/F, Fischer 344, Deaths + Body Weight Changes: decrease + Histopathology: Kidneys-Calculi Urinary bladder a"Inflammation Urinary bladder a"Transitional …
  NOEL: 115 mg/kg-day

## c1ccc2c(c1)sc1ccccc12 [Dibenzothiophene]
short-term, duration: 28 days, gavage, M/F, Sprague-Dawley, Clinical Observation: Salivation Soiled perigenital fur + Functional Observational Battery: Locomotor activity decrease + Body Weight …
  NOEL: 3 mg/kg-day

## COc1cccc(OC)c1C(=O)P(=O)(CC(C)CC(C)(C)C)C(=O)c1c(OC)cccc1OC (stereo not given)
short-term, duration: 28 days, gavage, M/F, Blood Chemistry: CHE decrease + Absolute Organ Weight: Liver increase + Histopathology: Skin-Proliferation, epidermis, horny layer Skin-…
  NOEL: 5 mg/kg-day

## O=C1C=CC(=O)N1c1cccc(N2C(=O)C=CC2=O)c1 [N,N'-1,3-Phenylenedimaleimide]
[1]
  NOAEL: 15 mg/kg-day
  NOEL: < 15 mg/kg-day

## CC(C)(C)c1cc(C(C)(C)C)cc(C(C)(C)C)c1 [1,3,5-Tri-tert-butylbenzene]
[2]
  LOAEL: 50 mg/kg-day
  LOEL: 50 mg/kg-day
  NOAEL: 10 mg/kg-day
  NOEL: 10 mg/kg-day

## CCCCCCC[CH2][Sn]([CH2]CCCCCCC)([S]CC(=O)OCC(CC)CCCC)[S]CC(=O)OCC(CC)CCCC (stereo not given) [Dioctyltinbis(2-ethylhexyl mercaptoacetate)]
subchronic, duration: 90 days, diet, M/F, Wistar, Deaths + Body Weight Changes: Mean body weight decrease + Food Consumption: decrease + Urinalysis: SG decrease, GOT increase + Hematology: …
  NOAEL: 0.96 mg/kg-day

## O=[N+]([O-])c1ccc(NCCO)c(OCCO)c1 [HC Yellow 4]
subchronic, duration: 13 weeks, diet, M/F, Fischer 344, Body Weight Changes: decrease + Relative Organ Weight: Right kidney increase, Liver increase, Lungs increase, Thymus increase, Testis …
  NOEL: < 240 mg/kg-day

## C=CCOC(=O)C(=C)C [Allyl methacrylate]
subchronic, gavage, M, Sprague-Dawley, Clinical Observation: Hypersalivation + Body Weight Changes: Weight gain decrease + Absolute Organ Weight: Adrenal decrease, Thymus increase…
  NOAEL: 15 mg/kg-day

## COc1ccc2c3c1O[C@H]1[C@@H](O)C=C[C@H]4[C@@H](C2)N(C)CC[C@@]341 [Codeine]
subchronic, duration: 13 weeks, diet, F, Fischer 344, Deaths + Clinical Observation: Ruffled fur AlopeciaAbnormal posture + Body Weight Changes: decrease + Hematology: RBC decrease, Plt decrease…
  NOEL: < 25 mg/kg-day
subchronic, duration: 13 weeks, diet, M/F, Fischer 344, Deaths + Clinical Observation: Ruffled fur AlopeciaAbnormal posture + Body Weight Changes: decrease + Hematology: RBC decrease, Plt decrease…
  NOEL: < 37.4 mg/kg-day

## CCn1cc(C(=O)O)c(=O)c2cc(F)c(N3CCNCC3)nc21.CCn1cc(C(=O)O)c(=O)c2cc(F)c(N3CCNCC3)nc21.CCn1cc(C(=O)O)c(=O)c2cc(F)c(N3CCNCC3)nc21.O.O
short-term, duration: 28 days, gavage, M/F, Sprague-Dawley, Clinical Observation: Loose stool + Body Weight Changes: Body weight gain decrease + Food Consumption: decrease + Urinalysis: White crystal…
  NOEL: 120 mg/kg-day

## ClC1=C(Cl)[C@]2(Cl)[C@H]3[C@H]([C@H](Cl)C(Cl)[C@@H]3Cl)[C@@]1(Cl)C2(Cl)Cl (stereo partly drawn) [trans-Nonachlor]
subchronic, diet, M/F, Sprague-Dawley, Blood Chemistry: Pi increase, A/G decrease, Thyroxine increasetake decrease, T4 increase + Absolute Organ Weight: Liver increase + Relative …
  NOEL: < 0.48 mg/kg-day

## CC(C)(O)C(Cl)(Cl)Cl [1,1,1-Trichloro-2-methyl-2-propanol]
subchronic, gavage, M, Sprague-Dawley, Clinical Observation: Staggering gait + Functional Observational Battery: Grip strength decrease, Locomotor activity decrease + Food …
  NOEL: < 10 mg/kg-day

## C=C(F)C(F)(F)C(F)(F)C(F)F [2,3,3,4,4,5,5-Heptafluoro-1-pentene]
short-term, duration: 28 days, gavage, M/F, Deaths + Clinical Observation: Salivation Locomotor activity decrease, Whitish discoloration of tooth Bradypnea Reddening of extremity and …
  NOEL: 8 mg/kg-day

## Cc1ccc(O)c(-n2nc3ccccc3n2)c1 [2-(2H-Benzotriazol-2-yl)-4-methylphenol]
subchronic, gavage, M, Sprague-Dawley, Urinalysis: Protein increase + Blood Chemistry: PL increase + Absolute Organ Weight: Liver increase + Relative Organ Weight: Liver increase…
  NOEL: < 30 mg/kg-day

## CC(C)=CCl [2,2-Dimethylvinyl chloride]
subchronic, duration: 13 weeks, gavage, M/F, Fischer 344, Deaths + Clinical Observation: Rough hair Inactivity Perianal wetness + Body Weight Changes: decrease + Histopathology: Liver/periportal-…
  NOEL: 125 mg/kg-day

## Cc1cc(-c2ccc(N)c(C)c2)ccc1N.Cl.Cl [3,3'-Dimethylbenzidine dihydrochloride]
subchronic, duration: 13 weeks, drinking water, M/F, Fischer 344, Deaths + Clinical Observation: Crusty red exudate on the noses Thinness Stains on the fur + Body Weight Changes: decrease + Water …
  NOEL: < 45.6 mg/kg-day

## O=C(c1ccc(O)cc1)c1ccc(O)c(O)c1O [2,3,4,4'-Tetrahydroxybenzophenone]
subchronic, duration: 42 days, gavage, M, CD(SD), Clinical Observation: Salivation + Functional Observational Battery: Hind limb grip strength decrease + Body Weight Changes: Weight gain …
  NOEL: < 100 mg/kg-day

## C=CC(=O)OCC [Ethyl acrylate]
subchronic, duration: 90 days, gavage, M, Fischer 344, Necropsy: Small intestine: Reddening, duodenal mucosa Stomach: Prominent blood vessel, cardiac region
  NOAEL: 55 mg/kg-day

## O=[N+]([O-])c1ccc(CCl)cc1 [4-Nitrobenzyl chloride]
short-term, duration: 28 days, gavage, M/F, Sprague-Dawley, Clinical Observation: Salivation + Functional Observational Battery: Locomotor activity decrease + Food Consumption: decrease + Water …
  NOEL: < 8 mg/kg-day

## CC(=O)Nc1ccc(O)cc1 [Acetaminophen]
short-term, duration: 19 days, gavage, F, Wistar, Deaths + Clinical Observation: Emaciation(dead animals) Hypothermia(dead animals) Bradypnea(dead animals) Locomotor activity decrease(dead …
  NOEL: 20 mg/kg-day
short-term, duration: 19 days, gavage, M, Wistar, Deaths + Clinical Observation: Emaciation(dead animals) Hypothermia(dead animals) Bradypnea(dead animals) Locomotor activity decrease(dead …
  NOEL: 20 mg/kg-day
subchronic, duration: 13 weeks, diet, M/F, Fischer 344, Deaths + Clinical Observation: Dark yellow urine + Body Weight Changes: decrease + Absolute Organ Weight: Right testis decrease, Thymus …
  NOEL: < 76.8 mg/kg-day

## CC(=O)/C=C/C1=C(C)CCCC1(C)C [beta-Ionone]
subchronic, duration: 90 days, diet, M/F, Wistar, Urinalysis: Ket increase, Uro increase, Transitional epithelial cell increase, Epithelial cell casts + Blood Chemistry: gamma-GTP increase, …
  NOAEL: 96 mg/kg-day

## COC(=O)C(c1ccccc1)C1CCCCN1.Cl (stereo not given) [Methylphenidate hydrochloride]
subchronic, duration: 13 weeks, diet, F, Fischer 344, Body Weight Changes: decrease + Food Consumption: decrease + Absolute Organ Weight: Brain increase, Liver increase + Relative Organ Weight: …
  NOEL: 18 mg/kg-day
subchronic, duration: 13 weeks, diet, M/F, Fischer 344, Body Weight Changes: decrease + Food Consumption: decrease + Absolute Organ Weight: Brain increase, Liver increase + Relative Organ Weight: …
  NOEL: 24 mg/kg-day

## c1ccc(COc2ccc3ccccc3c2)cc1 [Benzyl 2-naphthyl ether]
subchronic, gavage, M, Sprague-Dawley, Blood Chemistry: T-Bil increase + Relative Organ Weight: Liver increase + Histopathology: Kidney-Globular accumulation of eosinophilic …
  NOEL: < 100 mg/kg-day

## O=[N+]([O-])c1cc(Cl)c(/N=N/c2ccc3c(c2)c2ccccc2n3CCO)c(Cl)c1
short-term, duration: 28 days, gavage, M/F, Body Weight Changes: Body weight gain decrease + Food Consumption: decrease + Water Consumption: increase + Urinalysis: Urine volume …
  NOEL: 140 mg/kg-day

## O=C(Cl)c1ccccc1Cl [Benzoyl chloride, 2-chloro-]
subchronic, duration: 42 days, gavage, M, CD(SD), Clinical Observation: Salivation Soft/mucous stool Soiled perianal/perigenital fur + Body Weight Changes: Weight gain decrease + Food …
  NOEL: 40 mg/kg-day

## CCCCCCc1ccc(O)cc1O [4-Hexylresorcinol]
subchronic, duration: 13 weeks, gavage, M/F, Fischer 344, Deaths + Clinical Observation: Death + Body Weight Changes: decrease + Histopathology: Testis-Hypospermatogenesis Seminal vesicles-…
  NOEL: < 62.5 mg/kg-day

## Cc1ccc(C)c(N)c1 [2,5-Dimethylaniline]
short-term, duration: 28 days, gavage, F, Sprague-Dawley, Clinical Observation: Staggering gait Lacrimation Salivation + Body Weight Changes: Body weight gain decrease + Food Consumption: decrease…
  NOEL: 12 mg/kg-day
short-term, duration: 28 days, gavage, M, Sprague-Dawley, Clinical Observation: Staggering gait Lacrimation Salivation + Body Weight Changes: Body weight gain decrease + Food Consumption: decrease…
  NOEL: < 12 mg/kg-day

## COc1ccc([N+](=O)[O-])cc1 [p-Nitroanisole]
[3]
  NOAEL: 100 mg/kg-day
  NOEL: < 100 mg/kg-day

## COCC(C)OCC(C)O (stereo not given) [Dipropylene glycol monomethyl ether]
short-term, duration: 28 days, gavage, M/F, Sprague-Dawley, Clinical Observation: Tentative salivation + Relative Organ Weight: Liver increase + Histopathology: Liver-Centrilobular hypertrophy
  NOAEL: 200 mg/kg-day

## CC(Cl)(Cl)C(=O)[O-].[Na+] [Dalapon-sodium]
subchronic, gavage, M, Sprague-Dawley, Blood Chemistry: TP decrease, BUN increase
  NOEL: 300 mg/kg-day
